# Active and inactive are the calls of the source. How the calls were made is not given here.
# Tested on: CCRIS mutagenicity, Ames/micronucleus/aberration tests
# Assay: CCRIS mutagenicity studies
# [1] = Test System: AMES SALMONELLA TYPHIMURIUM, Strain/Indicator: TA100, Metabolic Activation: NONE, Method: STANDARD PLATE
# [2] = Test System: AMES SALMONELLA TYPHIMURIUM, Strain/Indicator: TA1535, Metabolic Activation: NONE, Method: STANDARD PLATE
# [3] = Test System: AMES SALMONELLA TYPHIMURIUM, Strain/Indicator: TA1535, Metabolic Activation: NONE, Method: PREINCUBATION
# [4] = Test System: AMES SALMONELLA TYPHIMURIUM, Strain/Indicator: TA1537, Metabolic Activation: NONE, Method: PREINCUBATION
smiles,measurement,setting,value
ONc1ccc2ccccc2c1,mutagenic call,"Test System: AMES SALMONELLA TYPHIMURIUM, Strain/Indicator: TA98, Metabolic Activation: NONE, Method: STANDARD PLATE",active; positive
same,mutagenic call,"Test System: AMES SALMONELLA TYPHIMURIUM, Strain/Indicator: TA98, Metabolic Activation: S-9, Method: STANDARD PLATE",active; positive
same,mutagenic call,[1],active; positive
same,mutagenic call,"Test System: AMES SALMONELLA TYPHIMURIUM, Strain/Indicator: TA100, Metabolic Activation: S-9, Method: STANDARD PLATE",active; positive
same,mutagenic call,[2],active; positive
same,mutagenic call,"Test System: AMES SALMONELLA TYPHIMURIUM, Strain/Indicator: TA1538, Metabolic Activation: NONE, Method: STANDARD PLATE",active; positive
O=c1c(O)c2c(c3c1ccc1c3cccn1O)O2,mutagenic call,[1],inactive; negative
CNNC,mutagenic call,"Test System: AMES SALMONELLA TYPHIMURIUM, Strain/Indicator: TA102, Metabolic Activation: NONE, Method: PREINCUBATION",inactive; negative
same,mutagenic call,"Test System: AMES SALMONELLA TYPHIMURIUM, Strain/Indicator: TA102, Metabolic Activation: NONE, Method: STANDARD PLATE",inactive; negative
same,mutagenic call,[3],inactive; negative
same,mutagenic call,[2],inactive; negative
same,mutagenic call,"Test System: AMES SALMONELLA TYPHIMURIUM, Strain/Indicator: TA1535, Metabolic Activation: RAT, LIVER, S-9, AROCLOR 1254, Method: PREINCUBATION",inactive; negative
same,mutagenic call,[4],inactive; negative
same,mutagenic call,"Test System: AMES SALMONELLA TYPHIMURIUM, Strain/Indicator: TA1537, Metabolic Activation: RAT, LIVER, S-9, AROCLOR 1254, Method: PREINCUBATION",inactive; negative
same,mutagenic call,"Test System: AMES SALMONELLA TYPHIMURIUM, Strain/Indicator: TA2638, Metabolic Activation: NONE, Method: STANDARD PLATE",active; positive
same,mutagenic call,"Test System: AMES SALMONELLA TYPHIMURIUM, Strain/Indicator: YG7108, Metabolic Activation: NONE, Method: STANDARD PLATE",active; positive
same,mutagenic call,"Test System: E. COLI, Strain/Indicator: WP2 (PKM101), Metabolic Activation: NONE, Method: STANDARD PLATE",active; positive
same,mutagenic call,"Test System: E. COLI, Strain/Indicator: WP2 UVRA (PKM101), Metabolic Activation: NONE, Method: STANDARD PLATE",active; positive
CNC(=O)ON=CC(C)(C)SC,mutagenic call,"End Point: IN VIVO CHROMOSOMAL ABERRATIONS, Test System: BONE MARROW CELLS, Species: RAT, Strain/Sex: MALE, Route: ORAL (GAVAGE)",active; positive (structural and ploidy changes)
same,mutagenic call,"End Point: IN VIVO MICRONUCLEUS, Test System: BONE MARROW POLYCHROMATIC ERYTHROCYTES, Species: RAT, Strain/Sex: MALE, Route: ORAL (GAVAGE)",active; positive
same,mutagenic call,"Test System: AMES SALMONELLA TYPHIMURIUM, Strain/Indicator: TA97, Metabolic Activation: HAMSTER, LIVER, S-9, AROCLOR 1254 (10 OR 30%), Method: PREINCUBATION",inactive; negative
same,mutagenic call,"Test System: AMES SALMONELLA TYPHIMURIUM, Strain/Indicator: TA97, Metabolic Activation: NONE, Method: PREINCUBATION",inactive; negative
same,mutagenic call,"Test System: AMES SALMONELLA TYPHIMURIUM, Strain/Indicator: TA97, Metabolic Activation: RAT, LIVER, S-9, AROCLOR 1254 (10 OR 30%), Method: PREINCUBATION",inactive; negative
same,mutagenic call,"Test System: AMES SALMONELLA TYPHIMURIUM, Strain/Indicator: TA98, Metabolic Activation: HAMSTER, LIVER, S-9, AROCLOR 1254 (10 OR 30%), Method: PREINCUBATION",inactive; negative
same,mutagenic call,"Test System: AMES SALMONELLA TYPHIMURIUM, Strain/Indicator: TA98, Metabolic Activation: NONE, Method: PREINCUBATION",inactive; negative
same,mutagenic call,"Test System: AMES SALMONELLA TYPHIMURIUM, Strain/Indicator: TA98, Metabolic Activation: RAT, LIVER, S-9, AROCLOR 1254 (10 OR 30%), Method: PREINCUBATION",inactive; negative
same,mutagenic call,"Test System: AMES SALMONELLA TYPHIMURIUM, Strain/Indicator: TA100, Metabolic Activation: HAMSTER, LIVER, S-9, AROCLOR 1254 (10 OR 30%), Method: PREINCUBATION",inactive; negative
same,mutagenic call,"Test System: AMES SALMONELLA TYPHIMURIUM, Strain/Indicator: TA100, Metabolic Activation: NONE, Method: PREINCUBATION",inactive; negative
same,mutagenic call,"Test System: AMES SALMONELLA TYPHIMURIUM, Strain/Indicator: TA100, Metabolic Activation: RAT, LIVER, S-9, AROCLOR 1254 (10 OR 30%), Method: PREINCUBATION",inactive; negative
same,mutagenic call,"Test System: AMES SALMONELLA TYPHIMURIUM, Strain/Indicator: TA1535, Metabolic Activation: HAMSTER, LIVER, S-9, AROCLOR 1254 (10 OR 30%), Method: PREINCUBATION",inactive; negative
same,mutagenic call,[3],inactive; negative
same,mutagenic call,"Test System: AMES SALMONELLA TYPHIMURIUM, Strain/Indicator: TA1535, Metabolic Activation: RAT, LIVER, S-9, AROCLOR 1254 (10 OR 30%), Method: PREINCUBATION",inactive; negative
same,mutagenic call,"Test System: AMES SALMONELLA TYPHIMURIUM, Strain/Indicator: TA1537, Metabolic Activation: HAMSTER, LIVER, S-9, AROCLOR 1254 (10 OR 30%), Method: PREINCUBATION",inactive; negative
same,mutagenic call,[4],inactive; negative
same,mutagenic call,"Test System: AMES SALMONELLA TYPHIMURIUM, Strain/Indicator: TA1537, Metabolic Activation: RAT, LIVER, S-9, AROCLOR 1254 (10 OR 30%), Method: PREINCUBATION",inactive; negative
same,mutagenic call,"Test System: E. COLI, Strain/Indicator: WP2 UVRA, Metabolic Activation: HAMSTER, LIVER, S-9, AROCLOR 1254, Method: STANDARD PLATE",inactive; negative
same,mutagenic call,"Test System: E. COLI, Strain/Indicator: WP2 UVRA, Metabolic Activation: HAMSTER, LIVER, S-9, Method: STANDARD PLATE",inactive; negative
same,mutagenic call,"Test System: E. COLI, Strain/Indicator: WP2 UVRA, Metabolic Activation: MOUSE, LIVER, S-9, AROCLOR 1254, Method: STANDARD PLATE",inactive; negative
same,mutagenic call,"Test System: E. COLI, Strain/Indicator: WP2 UVRA, Metabolic Activation: MOUSE, LIVER, S-9, Method: STANDARD PLATE",inactive; negative
same,mutagenic call,"Test System: E. COLI, Strain/Indicator: WP2 UVRA, Metabolic Activation: NONE, Method: STANDARD PLATE",inactive; negative
same,mutagenic call,"Test System: E. COLI, Strain/Indicator: WP2 UVRA, Metabolic Activation: RAT, LIVER, S-9, AROCLOR 1254, Method: STANDARD PLATE",inactive; negative
same,mutagenic call,"Test System: E. COLI, Strain/Indicator: WP2 UVRA, Metabolic Activation: RAT, LIVER, S-9, Method: STANDARD PLATE",inactive; negative
same,mutagenic call,"Test System: MOUSE LYMPHOMA, Strain/Indicator: L5178Y (TK+/TK-), Metabolic Activation: NONE, Method: SUSPENSION/PLATE",active; positive
same,mutagenic call,"Test System: MOUSE LYMPHOMA, Strain/Indicator: L5178Y (TK+/TK-), Metabolic Activation: RAT, LIVER, S-9, AROCLOR 1254, Method: SUSPENSION/PLATE",active; positive
same,mutagenic call,"Test System: MOUSE LYMPHOMA, Strain/Indicator: L5178Y (TK+/TK-), Metabolic Activation: RAT, LIVER, S-9, Method: SUSPENSION/PLATE",active; positive

# Reference: PubChem BioAssay AID1259407 (Chemical Carcinogenesis Research Information System (CCRIS), 2018)
